According to patent US20240058464A1 (Fortis Therapeutics, Inc., priority 2021, published 2024):

Assays:
CD46 expression [1] = test: CD46 expression by RNA-sequencing in unpaired pre-treatment and post-treatment tumor biopsies; format: in vivo, human; settings: for CD46 expression Post: post-treatment biopsies
CD46 expression [2] = test: CD46 expression by RNA-sequencing in paired tumor biopsies before and after therapy; settings: paired biopsies; for CD46 expression, Post-Treatment Biopsy: RNA-seq log2-transformed counts;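 on all read-outs here: FFPE human tumor biopsies, exome-capture RNA-seq, reads aligned to GRCh37, counts normalized for GC content, length and depth, summed per gene, log2-transformed, samples paired before versus after therapy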
Procedure: Gene expression was determined by RNA-sequencing from formalin-fixed, paraffin-embedded (FFPE) tumor samples using an exome capture-based protocol. Briefly, total nucleic acid was extracted from FFPE solid tumor samples. The RNA sample was treated with DNAse and reverse transcribed. cDNA was captured with a custom probe set targeting the human exome. A library was prepared from the captured cDNA and sequenced on the Illumina platform. Sequence read were aligned to GRCh37 using Kallisto and normalized to quantify gene expression. Specifically, transcript counts were corrected for GC content and length using quantile normalization and adjusted for sequencing depth via a size factor method. Normalized counts in protein coding transcripts covered by the exome panel were then summed to obtain gene-level counts. Subsequent expression analyses were performed on log2-transformed counts.

[3] = Breast Cancer, Post minus Pre, unpaired biopsies, log2-transformed counts
[4] = Breast Cancer, post- vs pre-treatment unpaired biopsies
[5] = Breast Cancer, unpaired, RNA-seq log2-transformed normalized counts
[6] = Sarcoma, Post minus Pre, unpaired biopsies, log2-transformed counts
[7] = Sarcoma, post- vs pre-treatment unpaired biopsies
[8] = Sarcoma, unpaired, RNA-seq log2-transformed normalized counts

Nc1ccn([C@@H]2O[C@H](CO)[C@@H](O)C2(F)F)c(=O)n1 [gemcitabine]
CD46 expression diff (CD46 expression [1]; Biliary Cancer, Post minus Pre, unpaired biopsies, log2-transformed counts): −0.03
CD46 expression Percentage change (CD46 expression [1]; Biliary Cancer, post- vs pre-treatment unpaired biopsies): −0.5%
CD46 expression Post (CD46 expression [1]; Biliary Cancer, unpaired, RNA-seq log2-transformed normalized counts): 5.80
CD46 expression diff (CD46 expression [1]; Bladder Cancer, Post minus Pre, unpaired biopsies, log2-transformed counts): −0.03
CD46 expression Percentage change (CD46 expression [1]; Bladder Cancer, post- vs pre-treatment unpaired biopsies): −0.5%
CD46 expression Post (CD46 expression [1]; Bladder Cancer, unpaired, RNA-seq log2-transformed normalized counts): 6.12
CD46 expression diff (CD46 expression [1]; [3]): 0.02
CD46 expression Percentage change (CD46 expression [1]; [4]): 0.3%
CD46 expression Post (CD46 expression [1]; [5]): 6.09
CD46 expression diff (CD46 expression [1]; Non-Small Cell Lung Cancer, Post minus Pre, unpaired biopsies, log2-transformed counts): 0.10
CD46 expression Percentage change (CD46 expression [1]; Non-Small Cell Lung Cancer, post- vs pre-treatment unpaired biopsies): 1.7%
CD46 expression Post (CD46 expression [1]; Non-Small Cell Lung Cancer, unpaired, RNA-seq log2-transformed normalized counts): 5.98
CD46 expression diff (CD46 expression [1]; Ovarian Cancer, Post minus Pre, unpaired biopsies, log2-transformed counts): −0.05
CD46 expression Percentage change (CD46 expression [1]; Ovarian Cancer, post- vs pre-treatment unpaired biopsies): −0.9%
CD46 expression Post (CD46 expression [1]; Ovarian Cancer, unpaired, RNA-seq log2-transformed normalized counts): 5.72
CD46 expression diff (CD46 expression [1]; Pancreatic Cancer, Post minus Pre, unpaired biopsies, log2-transformed counts): 0.00
CD46 expression Percentage change (CD46 expression [1]; Pancreatic Cancer, post- vs pre-treatment unpaired biopsies): 0.1%
CD46 expression Post (CD46 expression [1]; Pancreatic Cancer, unpaired, RNA-seq log2-transformed normalized counts): 5.87
CD46 expression diff (CD46 expression [1]; [6]): −0.10
CD46 expression Percentage change (CD46 expression [1]; [7]): −2.0%
CD46 expression Post (CD46 expression [1]; [8]): 5.02
CD46 expression diff (post minus pre) (CD46 expression [2]; Biliary Cancer): 0.05
Percent Change in CD46 expression (CD46 expression [2]; Biliary Cancer): 0.9%
CD46 expression, Post-Treatment Biopsy (CD46 expression [2]; Biliary Cancer): 5.86
CD46 expression diff (post minus pre) (CD46 expression [2]; Bladder Cancer): −0.05
Percent Change in CD46 expression (CD46 expression [2]; Bladder Cancer): −0.8%
CD46 expression, Post-Treatment Biopsy (CD46 expression [2]; Bladder Cancer): 6.24
CD46 expression diff (post minus pre) (CD46 expression [2]; Breast Cancer): 0.09
Percent Change in CD46 expression (CD46 expression [2]; Breast Cancer): 1.4%
CD46 expression, Post-Treatment Biopsy (CD46 expression [2]; Breast Cancer): 6.22
CD46 expression diff (post minus pre) (CD46 expression [2]; Ovarian Cancer): 0.30
Percent Change in CD46 expression (CD46 expression [2]; Ovarian Cancer): 5.3%
CD46 expression, Post-Treatment Biopsy (CD46 expression [2]; Ovarian Cancer): 5.95
CD46 expression diff (post minus pre) (CD46 expression [2]; Pancreatic Cancer): 0.09
Percent Change in CD46 expression (CD46 expression [2]; Pancreatic Cancer): 1.5%
CD46 expression, Post-Treatment Biopsy (CD46 expression [2]; Pancreatic Cancer): 5.93
CD46 expression diff (post minus pre) (CD46 expression [2]; Sarcoma): 0.02
Percent Change in CD46 expression (CD46 expression [2]; Sarcoma): 0.4%
CD46 expression, Post-Treatment Biopsy (CD46 expression [2]; Sarcoma): 5.13

O=P1(NCCCl)OCCCN1CCCl (stereo not shown) [ifosfamide]
CD46 expression diff (CD46 expression [1]; [6]): 0.17
CD46 expression Percentage change (CD46 expression [1]; [7]): 3.4%
CD46 expression Post (CD46 expression [1]; [8]): 5.07
CD46 expression diff (post minus pre) (CD46 expression [2]; Sarcoma): 0.32
Percent Change in CD46 expression (CD46 expression [2]; Sarcoma): 6.7%
CD46 expression, Post-Treatment Biopsy (CD46 expression [2]; Sarcoma): 5.08

CCc1c2c(nc3ccc(OC(=O)N4CCC(N5CCCCC5)CC4)cc13)-c1cc3c(c(=O)n1C2)COC(=O)[C@]3(O)CC [irinotecan]
CD46 expression diff (CD46 expression [1]; Biliary Cancer, post minus pre, unpaired biopsies): −0.14
CD46 expression Percentage change (CD46 expression [1]; Biliary Cancer, post vs pre, unpaired biopsies): −2.3%
CD46 expression Post (CD46 expression [1]; Biliary Cancer, log2-transformed RNA-seq counts): 5.88
CD46 expression diff (CD46 expression [1]; Colorectal Cancer, Post minus Pre, unpaired biopsies, log2-transformed counts): 0.16
CD46 expression Percentage change (CD46 expression [1]; Colorectal Cancer, post- vs pre-treatment unpaired biopsies): 2.5%
CD46 expression Post (CD46 expression [1]; Colorectal Cancer, unpaired, RNA-seq log2-transformed normalized counts): 6.54
CD46 expression diff (CD46 expression [1]; Pancreatic Cancer, post minus pre, unpaired biopsies): −0.14
CD46 expression Percentage change (CD46 expression [1]; Pancreatic Cancer, post vs pre, unpaired biopsies): −2.5%
CD46 expression Post (CD46 expression [1]; Pancreatic Cancer, log2-transformed RNA-seq counts): 5.76
CD46 expression after treatment vs pre-treatment (CD46 expression [1]; colorectal cancer, unpaired biopsies, FIG. 5): significantly higher
CD46 expression diff (post minus pre) (CD46 expression [2]; Colorectal Cancer): 0.16
Percent Change in CD46 expression (CD46 expression [2]; Colorectal Cancer): 2.5%
CD46 expression, Post-Treatment Biopsy (CD46 expression [2]; Colorectal Cancer): 6.48
CD46 expression diff (post minus pre) (CD46 expression [2]; Pancreatic Cancer): −0.01
Percent Change in CD46 expression (CD46 expression [2]; Pancreatic Cancer): −0.1%
CD46 expression, Post-Treatment Biopsy (CD46 expression [2]; Pancreatic Cancer): 5.93

N#Cc1ccc(C(c2ccc(C#N)cc2)n2cncn2)cc1 [letrozole]
CD46 expression diff (CD46 expression [1]; [3]): −0.04
CD46 expression Percentage change (CD46 expression [1]; [4]): −0.6%
CD46 expression Post (CD46 expression [1]; [5]): 6.39
CD46 expression diff (CD46 expression [1]; Ovarian Cancer, post minus pre, unpaired biopsies): −0.17
CD46 expression Percentage change (CD46 expression [1]; Ovarian Cancer, post vs pre, unpaired biopsies): −2.8%
CD46 expression Post (CD46 expression [1]; Ovarian Cancer, log2-transformed RNA-seq counts): 5.74
CD46 expression diff (post minus pre) (CD46 expression [2]; Breast Cancer): −0.04
Percent Change in CD46 expression (CD46 expression [2]; Breast Cancer): −0.6%
CD46 expression, Post-Treatment Biopsy (CD46 expression [2]; Breast Cancer): 6.41
